Laboratory results: patent US20150087697A1, “COMPOSITIONS AND METHODS FOR THE TREATMENT OF MUSCLE PAIN” (priority 2012, published 2015)

Experiment: in vivo
Details: rat, iv, 30 μg/min/kg

half-life (brain (striatum microdialysate, unbound drug)): 49.1 ± 7.3 min
half-life (plasma (femoral vein microdialysate, unbound drug)): 67.6 ± 1.4 min
Compound: CC/C=C\C/C=C\C/C=C\C/C=C\C/C=C\CCCC(=O)OCCN(CC)CCOC(c1ccccc1)c1ccccc1 [Formula I (compound 1-4)]
